As usually defined, the MIC is the smallest concentration in the dilution series that meets the test's criterion for growth inhibition.

Consider 7 molecules from ChEMBL document CHEMBL5584255, “Synthesis and antibacterial medicinal evaluation of carbothioamido hydrazonyl thiazolylquinolone with multitargeting antimicrobial potential to combat increasingly global resistance” (Eur J Med Chem, 2024).

Assay type in all cases: functional
Experiment [1] deals with Staphylococcus aureus. Put plainly: Antibacterial activity against Staphylococcus aureus ATCC 25923 by microbroth dilution method. A general note: Broth dilution looks for growth in wells or tubes with falling amounts of substance.
Experiment [2] deals with Staphylococcus aureus. Put plainly: Antibacterial activity against Staphylococcus aureus ATCC 29213 by microbroth dilution method.
For experiment [3], the system named is Staphylococcus aureus. Put plainly: Antibacterial activity against drug-resistant Staphylococcus aureus by microbroth dilution method.
In experiment [4] the test system is Candida parapsilosis. The experiment in a line: Antifungal activity against Candida parapsilosis ATCC 22019. As to conditions: Lodderomyces parapsilosis.
Experiment [5] has as its system Escherichia coli. Put plainly: Antibacterial activity against Escherichia coli ATCC 25922 by microbroth dilution method.
The subject of experiment [6] is Aspergillus fumigatus. Put plainly: Antifungal activity against Aspergillus fumigatus.
The test system of experiment [7] is Pseudomonas aeruginosa. The experiment in a line: Antibacterial activity against Pseudomonas aeruginosa ATCC 27853 by microbroth dilution method.
The test system of experiment [8] is Acinetobacter baumannii. The experiment in a line: Antibacterial activity against Acinetobacter baumannii by microbroth dilution method.
Experiment [9] relates to Candida albicans. The experiment in a line: Antifungal activity against Candida albicans ATCC 90023.
Experiment [10] relates to Escherichia coli. The experiment in a line: Antibacterial activity against drug-resistant Escherichia coli by microbroth dilution method.
The test system of experiment [11] is Staphylococcus aureus. The experiment in a line: Antibacterial activity against methicillin-resistant Staphylococcus aureus N315 by microbroth dilution method.
Experiment [12] concerns Candida tropicalis. The experiment in a line: Antifungal activity against drug-resistant Candida tropicalis.
The subject of experiment [13] is Klebsiella pneumoniae. The experiment in a line: Antibacterial activity against Klebsiella pneumoniae by microbroth dilution method.
Experiment [14] has as its system Candida albicans. The experiment in a line: Antifungal activity against drug-resistant Candida albicans.
The subject of experiment [15] is Pseudomonas aeruginosa. The experiment in a line: Antibacterial activity against Pseudomonas aeruginosa by microbroth dilution method.
The test system of experiment [16] is Enterococcus faecalis. The experiment in a line: Antibacterial activity against drug-resistant Enterococcus faecalis by microbroth dilution method.

In brackets after ≈: the same amount, converted by molar mass.

As for `C/C(Cn1cc(-c2csc(N)n2)c(=O)c2cccc(F)c21)=N\NC(N)=S`, the MIC in experiment [1] was 41 µM (≈ 16 µg/mL); in experiment [2], 21 µM (≈ 8.2 µg/mL); in experiment [3], 21 µM (≈ 8.2 µg/mL); in experiment [4] it was 656 µM (≈ 256 µg/mL); in [5], 328 µM (≈ 128 µg/mL); in [6], 1310 µM (≈ 513 µg/mL). Besides, the MIC amounted to 328 µM (≈ 128 µg/mL) in experiment [7]; 656 µM (≈ 256 µg/mL) in [8]; 328 µM (≈ 128 µg/mL) in experiment [9]; 656 µM (≈ 256 µg/mL) in [10]; 41 µM (≈ 16 µg/mL) in experiment [11]; 656 µM (≈ 256 µg/mL) in experiment [12]. The MIC in [13] is 328 µM (≈ 128 µg/mL); in experiment [14], 656 µM (≈ 256 µg/mL); in experiment [15], 656 µM (≈ 256 µg/mL); in experiment [16] it was 328 µM (≈ 128 µg/mL).
On to `C/C(Cn1cc(-c2csc(C)n2)c(=O)c2cc(F)c(Cl)cc21)=N\NC(N)=S`, for which the MIC is 605 µM (≈ 256 µg/mL) in experiment [1]; 605 µM (≈ 256 µg/mL) in experiment [2]; 605 µM (≈ 256 µg/mL) in experiment [3]; 605 µM (≈ 256 µg/mL) in experiment [4]; 605 µM (≈ 256 µg/mL) in [5]; 1210 µM (≈ 513 µg/mL) in [6]. Besides, the MIC came out at 303 µM (≈ 128 µg/mL) in [7]; 605 µM (≈ 256 µg/mL) in experiment [8]; 605 µM (≈ 256 µg/mL) in experiment [9]; 605 µM (≈ 256 µg/mL) in [10]; 605 µM (≈ 256 µg/mL) in [11]; 303 µM (≈ 128 µg/mL) in experiment [12]. Besides, the MIC in experiment [13], in experiment [14], in [15] and in experiment [16] was 605 µM (≈ 256 µg/mL) each time.
Regarding `Nc1nc(-c2c[nH]c3c(F)cc(F)cc3c2=O)cs1`, the MIC is 459 µM (≈ 128 µg/mL) in experiment [1]; 918 µM (≈ 256 µg/mL) in experiment [2]; 918 µM (≈ 256 µg/mL) in experiment [3]; 459 µM (≈ 128 µg/mL) in experiment [4]; 459 µM (≈ 128 µg/mL) in [5]; 459 µM (≈ 128 µg/mL) in [6]. Also, the MIC is 229 µM (≈ 64 µg/mL) in experiment [7]; 459 µM (≈ 128 µg/mL) in experiment [8]; 115 µM (≈ 32.1 µg/mL) in experiment [9]; 459 µM (≈ 128 µg/mL) in experiment [10]; 459 µM (≈ 128 µg/mL) in experiment [11]; 229 µM (≈ 64 µg/mL) in [12]. Also, the MIC in [13] came to 459 µM (≈ 128 µg/mL); in experiment [14], 115 µM (≈ 32.1 µg/mL); in experiment [15], 459 µM (≈ 128 µg/mL); in experiment [16], 229 µM (≈ 64 µg/mL).
Regarding `CC(=O)Cn1cc(-c2csc(N)n2)c(=O)c2cc(F)cc(F)c21`, the MIC in experiment [1] was 382 µM (≈ 128 µg/mL); in experiment [2], 382 µM (≈ 128 µg/mL); in experiment [3], 764 µM (≈ 256 µg/mL); in experiment [4] it was 764 µM (≈ 256 µg/mL); in experiment [5], 382 µM (≈ 128 µg/mL); in experiment [6], 382 µM (≈ 128 µg/mL). In addition, the MIC was found to be 191 µM (≈ 64 µg/mL) in experiment [7]; 382 µM (≈ 128 µg/mL) in experiment [8]; 382 µM (≈ 128 µg/mL) in [9]; 382 µM (≈ 128 µg/mL) in experiment [10]; 382 µM (≈ 128 µg/mL) in experiment [11]; 382 µM (≈ 128 µg/mL) in experiment [12]. The MIC stood at 764 µM (≈ 256 µg/mL) in [13], 764 µM (≈ 256 µg/mL) in experiment [14], 382 µM (≈ 128 µg/mL) in [15] and 382 µM (≈ 128 µg/mL) in experiment [16].
Take `CCOC(=O)c1cn(C/C(C)=N/NC(N)=S)c2cc(F)c(F)cc2c1=O`: the MIC in experiment [1] stood at 670 µM (≈ 256 µg/mL); in experiment [2] it was 335 µM (≈ 128 µg/mL); in experiment [3] it was 670 µM (≈ 256 µg/mL); in experiment [4] it was 335 µM (≈ 128 µg/mL); in experiment [5], 670 µM (≈ 256 µg/mL); in [6] it was 670 µM (≈ 256 µg/mL). For the same molecule, the MIC in experiment [7] is 335 µM (≈ 128 µg/mL); in [8], 335 µM (≈ 128 µg/mL); in [9], 670 µM (≈ 256 µg/mL); in experiment [10], 670 µM (≈ 256 µg/mL); in experiment [11], 1340 µM (≈ 512 µg/mL); in experiment [12], 670 µM (≈ 256 µg/mL). Moreover, the MIC was found to be 670 µM (≈ 256 µg/mL) in experiment [13], 1340 µM (≈ 512 µg/mL) in [14], 670 µM (≈ 256 µg/mL) in [15] and 335 µM (≈ 128 µg/mL) in experiment [16].
On to `CC(=O)Cn1cc(C(C)=O)c(=O)c2cc(F)c(Cl)cc21`, for which the MIC in experiment [1] worked out at 868 µM (≈ 257 µg/mL); in [2], 1740 µM (≈ 513 µg/mL); in [3] it was 1740 µM (≈ 513 µg/mL); in [4], 217 µM (≈ 64.2 µg/mL); in experiment [5], 868 µM (≈ 257 µg/mL); in experiment [6], 868 µM (≈ 257 µg/mL). Moreover, the MIC came to 434 µM (≈ 128 µg/mL) in experiment [7]; 868 µM (≈ 257 µg/mL) in experiment [8]; 868 µM (≈ 257 µg/mL) in [9]; 868 µM (≈ 257 µg/mL) in [10]; 868 µM (≈ 257 µg/mL) in experiment [11]; 1740 µM (≈ 513 µg/mL) in experiment [12]. The MIC in [13] worked out at 868 µM (≈ 257 µg/mL); in [14] it was 1740 µM (≈ 513 µg/mL); in experiment [15] it was 434 µM (≈ 128 µg/mL); in [16], 868 µM (≈ 257 µg/mL).
Regarding `Cc1nc(-c2c[nH]c3c(F)cc(F)cc3c2=O)cs1`, the MIC came out at 460 µM (≈ 128 µg/mL) in experiment [1]; 460 µM (≈ 128 µg/mL) in experiment [2]; 921 µM (≈ 256 µg/mL) in experiment [3]; 921 µM (≈ 256 µg/mL) in experiment [4]; 921 µM (≈ 256 µg/mL) in experiment [5]; 921 µM (≈ 256 µg/mL) in experiment [6]. Moreover, the MIC amounted to 1840 µM (≈ 513 µg/mL) in experiment [7]; 921 µM (≈ 256 µg/mL) in [8]; 460 µM (≈ 128 µg/mL) in experiment [9]; 1840 µM (≈ 513 µg/mL) in experiment [10]; 460 µM (≈ 128 µg/mL) in experiment [11]; 921 µM (≈ 256 µg/mL) in experiment [12]. Moreover, the MIC worked out at 460 µM (≈ 128 µg/mL) in [13], 1840 µM (≈ 513 µg/mL) in [14], 1840 µM (≈ 513 µg/mL) in experiment [15] and 460 µM (≈ 128 µg/mL) in experiment [16].
